Measured values published in PMC9440615 (Biochemical pharmacology, 2020).
Counter-ions that a name gives are not always drawn. Like-named read-outs stand apart in the source and are kept apart here.

Legend:
[1] = molecular target: T1, hPXR (Homo sapiens, UniProt O75469)
T1 sequence (O75469 1-434): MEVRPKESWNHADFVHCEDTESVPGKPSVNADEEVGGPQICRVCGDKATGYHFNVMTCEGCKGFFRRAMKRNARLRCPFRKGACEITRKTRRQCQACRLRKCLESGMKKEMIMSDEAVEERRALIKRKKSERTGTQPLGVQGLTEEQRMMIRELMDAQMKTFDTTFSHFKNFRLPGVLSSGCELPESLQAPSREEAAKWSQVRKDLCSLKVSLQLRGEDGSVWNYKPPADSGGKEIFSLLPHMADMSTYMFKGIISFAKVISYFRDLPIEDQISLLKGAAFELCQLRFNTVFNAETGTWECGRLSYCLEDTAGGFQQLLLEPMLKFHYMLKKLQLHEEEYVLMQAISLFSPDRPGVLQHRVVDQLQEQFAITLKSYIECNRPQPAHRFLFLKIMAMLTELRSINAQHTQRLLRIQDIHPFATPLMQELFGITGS

[2] = tested on: CYP3A4 mRNA expression; assay: CYP3A4 mRNA induction in HepaRG cells; details: 24 h treatment, Fig. 2A; for CYP3A4 mRNA induction (result in words): compared with vehicle or RIF 10 μM
[3] = molecular target: T1, hPXR; assay: cell-based
[4] = tested on: CYP3A4 mRNA expression
[5] = tested on: CYP3A4 mRNA expression; assay: CYP3A4 mRNA induction in HepaRG-PXR-KO cells versus HepaRG cells; assay type: cell-based, human; details: HepaRG-PXR-KO vs HepaRG, 24 h, Fig. 5A
[6] = tested on: CYP2B6 mRNA expression; assay: CYP2B6 mRNA induction in HepaRG-PXR-KO cells versus HepaRG cells; assay type: cell-based, human; details: HepaRG-PXR-KO vs HepaRG, 24 h, Fig. 5B
[7] = qHTS primary screen, hPXR-Luc HepG2, 24 h, relative to positive control RIF
[8] = PXR Primary EC50, qHTS primary screen, hPXR-Luc HepG2, 24 h

O=C(CCCCCCC(=O)Nc1ccccc1)NO [Vorinostat (SAHA), Vorinostat]
PXR Primary Efficacy [1]: 7.8 ± 3.8 [182 ± 46.9] %

O=C(CCCN1CCC2(CC1)C(=O)NCN2c1ccccc1)c1ccc(F)cc1 [Spiperone]
PXR Follow-up Efficacy [1]: 6.2 ± 3.3 [345 ± 225] % | PXR Primary Efficacy [1]: 3.7 ± 0.4 [341 ± 31.7] % | CYP3A4 mRNA induction (fold increase) [2]: > 5 fold | CYP3A4 mRNA induction (result in words) [2]: not statistically significant

CCN1C(=O)c2ccccc2C1Nc1ccc(OCCN2CCCCC2)cc1 (stereo not drawn) [Etomidoline]
PXR Primary Efficacy [1, 7]: 175 ± 74.6% | CYP3A4 mRNA induction (result in words) [2]: greater extent than the positive control | EC50 [3]: 3.2 ± 0.4 µM | EC50 [3, 8]: 2.6 ± 1.3 µM

CC(C)C[C@H](NC(=O)[C@H](Cc1ccccc1)NC(=O)c1cnccn1)B(O)O [Bortezomib]
PXR Follow-up Efficacy [1]: 0.02 ± 0.004 [83.8 ± 12.8] % | PXR Primary Efficacy [1]: 0.008 ± 0.0005 [97.7 ± 17.9] %

CC[C@H]1CN2CCc3cc(OC)c(OC)cc3[C@@H]2C[C@@H]1C[C@H]1NCCc2cc(OC)c(OC)cc21 [Emetine]
PXR Follow-up Efficacy [1]: 0.1 ± 0.01 [119 ± 8.89] % | PXR Primary Efficacy [1]: 0.05 ± 0.04 [211 ± 74.0] %

Cc1oc2c(NC(=O)c3c(Cl)cccc3Cl)cccc2c1C(C)(C)O [FR167356]
EC50 [1]: 7.1 ± 1.2 µM | PXR Primary Efficacy [1, 7]: 178 ± 9.77% | EC50 ([1]; read-out: PXR Primary EC50, qHTS primary screen, hPXR-Luc HepG2, 24 h): 3 ± 2.2 µM

COC(=O)C1=C(C)NC(C)=C(C(=O)OC2CCCN(Cc3ccccc3)C2)C1c1cccc([N+](=O)[O-])c1 (racemic) [rac Benidipine hydrochloride]
PXR Follow-up Efficacy [1]: 4.6 ± 2.3 [105 ± 14.7] % | PXR Primary Efficacy [1]: 5.6 ± 5.4 [141 ± 33.3] %

Cc1cccc(N(C)C(=S)Oc2ccc3c(c2)CCC3)c1 [Tolindate]
PXR Primary Efficacy [1, 7]: 201 ± 37.5% | EC50 [3]: 8.7 ± 1.5 µM | EC50 [3, 8]: 8.3 ± 2.3 µM

CC(C)C[C@H](NC(=O)[C@H](CCc1ccccc1)NC(=O)CN1CCOCC1)C(=O)N[C@@H](Cc1ccccc1)C(=O)N[C@@H](CC(C)C)C(=O)[C@@]1(C)CO1 [Carfilzomib]
PXR Primary Efficacy [1, 7]: 110 ± 10.3% | EC50 [3]: 0.1 ± 0.02 µM | EC50 [3, 8]: 0.04 ± 0.024 µM

CCCCOCN(C(=O)CCl)c1c(CC)cccc1CC [Butachlor]
PXR Follow-up Efficacy [1]: 107 ± 26.0% | PXR Primary Efficacy [1]: 119 ± 49.2% | CYP3A4 mRNA induction (fold increase) ([4]; human): > 5 fold | EC50 [3]: 6.49 ± 2.9 µM | EC50 [3, 8]: 4 ± 4 µM

O[C@@H](COc1cccc2ncccc12)CN1CCN([C@@H]2c3ccccc3[C@@H]3[C@H](c4ccccc42)C3(F)F)CC1 [Zosuquidar trihydrochloride]
PXR Primary Efficacy [1, 7]: 188 ± 41.7% | EC50 [3]: 1.6 ± 0.3 µM | EC50 [3, 8]: 3.2 ± 1.7 µM

CCOc1cc(N)c(Cl)cc1C(=O)NCC1CN(Cc2ccc(F)cc2)CCO1 (stereo not drawn) [Mosapride citrate]
PXR Primary Efficacy [1, 7]: 222 ± 59.5% | EC50 [3]: 10.8 ± 1.2 µM | EC50 [3, 8]: 8.8 ± 3.3 µM

CCOC(=O)C1=C(C)NC(C)=C(C(=O)OCC)C1c1ccccc1/C=C/C(=O)OC(C)(C)C [Lacidipine]
PXR Follow-up Efficacy [1]: 10.4 ± 4.4 [115 ± 15.0] % | PXR Primary Efficacy [1]: 5.6 ± 5.5 [155 ± 70.5] % | CYP3A4 mRNA induction (result in words) [2]: greater extent than the positive control

N=C(Nc1ccccc1)Nc1ccccc1 [1,3-Diphenylguanidine]
PXR Follow-up Efficacy [1]: 2.7 ± 0.3 [393 ± 128] % | PXR Primary Efficacy [1]: 8.0 ± 13.7 [461 ± 143] % | EC50 ([3]; PXR Primary EC50): 8 µM | EC50 ([3]; […]): 2.7 µM

COC(=O)c1c(C(F)F)nc(C(F)(F)F)c(C2=NCCS2)c1CC(C)C [Thiazopyr]
PXR Follow-up Efficacy [1]: 4.6 ± 0.3 [102 ± 8.66] % | PXR Primary Efficacy [1]: 1.2 ± 1.0 [108 ± 37.9] % | CYP3A4 mRNA induction (result in words) [4]: greater extent than the positive control | EC50 ([3]; PXR Primary EC50): 1.2 µM | EC50 ([3]; […]): 4.6 µM

COc1cccc(N(C)C(=S)Oc2ccc3c(c2)CCCC3)n1 [Liranaftate]
PXR Follow-up Efficacy [1]: 4.5 ± 0.7 [144 ± 16.0] % | PXR Primary Efficacy [1]: 5.5 ± 2.6 [148 ± 42.6] % | CYP3A4 mRNA induction (result in words) [4]: greater extent than the positive control

Nc1nc(Cl)nc2c1ncn2[C@@H]1O[C@H](CO)[C@@H](O)[C@@H]1F [Clofarabine]
PXR Follow-up Efficacy [1]: 3.3 ± 0.4 [214 ± 13.9] % | PXR Primary Efficacy [1]: 0.7 ± 0.2 [112 ± 34.6] %

Clc1ccc(-c2nc3sccn3c2C=NOCc2ccc(Cl)c(Cl)c2)cc1 [CITCO, 6-(4-Chlorophenyl)imidazo[2,1–b][1, 3]thiazole-5-carbaldehyde O-(3,4-dichlorobenzyl)oxime]
Change of CYP3A4 mRNA induction in PXR-KO cells [5]: lack a significant decrease | Change of CYP2B6 mRNA expression in PXR-KO cells [6]: significantly decreased

Cc1nc(Nc2ncc(C(=O)Nc3c(C)cccc3Cl)s2)cc(N2CCN(CCO)CC2)n1 [Dasatinib]
PXR Follow-up Efficacy [1]: 0.6 ± 0.07 [127 ± 12.0] % | PXR Primary Efficacy [1]: 0.3 ± 0.5 [84.6 ± 22.2] %

CCCN(CCC)c1c([N+](=O)[O-])cc(C(F)(F)F)c(N)c1[N+](=O)[O-] [Prodiamine]
PXR Follow-up Efficacy [1]: 8.5 ± 0.9 [108 ± 6.61] % | PXR Primary Efficacy [1]: 4.7 ± 0.8 [168 ± 31.0] % | EC50 ([3]; PXR Primary EC50): 4.7 µM | EC50 ([3]; […]): 8.5 µM
